Consider two molecules from ChEMBL document CHEMBL1933021, “Novel and selective spiroindoline-based inhibitors of Sky kinase” (Bioorg Med Chem Lett, 2012).

Bounds are passed on as bounds.

The nature of data set [1]: Half life in po dosed Sprague-Dawley rat. As to conditions: in vivo. The data set is classed as ADME, organism-based.
In another data set the test system is Rattus norvegicus. Description: Volume of distribution at steady state in po dosed Sprague-Dawley rat. The data set is classed as ADME, organism-based. As to conditions: in vivo.
The nature of data set [2]: Permeability across human Caco2 cells. It counts as ADME, cell-based. The conditions noted are these: Caco-2, read-out: permeability. A general note: Passage across Caco-2 layers is used to estimate intestinal permeability.
The target of data set [3] is RAC-alpha serine/threonine-protein kinase (Homo sapiens, UniProt P31749). Description: Inhibition of AKT1.
Another data set concerns the target Aurora kinase A (Homo sapiens, UniProt O14965). Kind of data set: Inhibition of Aurora-A.
Data set [4] addresses Serine/threonine-protein kinase Sgk1 (Homo sapiens, UniProt O00141). Kind of data set: Inhibition of Sgk.
Data set [5] deals with Serine/threonine-protein kinase TAO3 (Homo sapiens, UniProt Q9H2K8). Kind of data set: Inhibition of TAOK3.
Data set [6] deals with High affinity nerve growth factor receptor (Homo sapiens, UniProt P04629). Kind of data set: Inhibition of TrkA.
The target in data set [7] is Vascular endothelial growth factor receptor 2 (Homo sapiens, UniProt P35968). Kind of data set: Inhibition of VEGFR2.
Vascular endothelial growth factor receptor 2, sequence (P35968 whole entry): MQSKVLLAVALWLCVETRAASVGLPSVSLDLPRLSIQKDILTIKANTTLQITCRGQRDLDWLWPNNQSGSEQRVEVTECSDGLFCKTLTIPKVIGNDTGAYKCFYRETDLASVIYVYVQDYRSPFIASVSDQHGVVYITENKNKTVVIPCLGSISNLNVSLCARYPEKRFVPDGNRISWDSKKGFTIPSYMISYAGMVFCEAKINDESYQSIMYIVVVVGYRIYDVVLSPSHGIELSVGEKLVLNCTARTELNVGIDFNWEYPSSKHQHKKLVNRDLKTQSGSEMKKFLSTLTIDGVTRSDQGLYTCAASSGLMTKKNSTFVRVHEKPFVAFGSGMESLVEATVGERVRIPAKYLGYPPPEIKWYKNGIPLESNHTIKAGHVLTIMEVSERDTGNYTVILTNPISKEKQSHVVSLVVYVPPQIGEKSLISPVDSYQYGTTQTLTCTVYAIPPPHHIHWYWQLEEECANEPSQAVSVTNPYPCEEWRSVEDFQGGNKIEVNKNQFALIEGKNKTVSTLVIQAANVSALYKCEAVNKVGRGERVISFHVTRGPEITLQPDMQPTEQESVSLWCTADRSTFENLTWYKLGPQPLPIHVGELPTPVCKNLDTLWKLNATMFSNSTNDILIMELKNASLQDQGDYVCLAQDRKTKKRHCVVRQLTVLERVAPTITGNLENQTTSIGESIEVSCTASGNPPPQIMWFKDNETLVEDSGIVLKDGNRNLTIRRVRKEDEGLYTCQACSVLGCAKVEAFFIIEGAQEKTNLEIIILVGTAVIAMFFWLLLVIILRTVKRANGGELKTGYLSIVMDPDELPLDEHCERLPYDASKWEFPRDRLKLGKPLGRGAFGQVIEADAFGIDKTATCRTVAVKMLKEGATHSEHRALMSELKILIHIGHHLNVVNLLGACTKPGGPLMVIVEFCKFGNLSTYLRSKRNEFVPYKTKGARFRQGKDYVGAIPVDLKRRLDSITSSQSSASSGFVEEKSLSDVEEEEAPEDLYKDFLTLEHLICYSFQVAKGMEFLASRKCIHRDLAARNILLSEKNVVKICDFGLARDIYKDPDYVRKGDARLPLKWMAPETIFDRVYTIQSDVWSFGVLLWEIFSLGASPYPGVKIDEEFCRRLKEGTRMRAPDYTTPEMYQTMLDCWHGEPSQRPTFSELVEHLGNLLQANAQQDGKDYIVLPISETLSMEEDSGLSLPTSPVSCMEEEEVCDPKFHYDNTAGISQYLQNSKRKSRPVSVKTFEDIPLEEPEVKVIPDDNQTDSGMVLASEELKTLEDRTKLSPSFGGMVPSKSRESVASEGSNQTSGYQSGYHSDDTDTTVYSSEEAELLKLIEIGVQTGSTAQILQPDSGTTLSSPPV

High affinity nerve growth factor receptor, sequence (P04629 whole entry): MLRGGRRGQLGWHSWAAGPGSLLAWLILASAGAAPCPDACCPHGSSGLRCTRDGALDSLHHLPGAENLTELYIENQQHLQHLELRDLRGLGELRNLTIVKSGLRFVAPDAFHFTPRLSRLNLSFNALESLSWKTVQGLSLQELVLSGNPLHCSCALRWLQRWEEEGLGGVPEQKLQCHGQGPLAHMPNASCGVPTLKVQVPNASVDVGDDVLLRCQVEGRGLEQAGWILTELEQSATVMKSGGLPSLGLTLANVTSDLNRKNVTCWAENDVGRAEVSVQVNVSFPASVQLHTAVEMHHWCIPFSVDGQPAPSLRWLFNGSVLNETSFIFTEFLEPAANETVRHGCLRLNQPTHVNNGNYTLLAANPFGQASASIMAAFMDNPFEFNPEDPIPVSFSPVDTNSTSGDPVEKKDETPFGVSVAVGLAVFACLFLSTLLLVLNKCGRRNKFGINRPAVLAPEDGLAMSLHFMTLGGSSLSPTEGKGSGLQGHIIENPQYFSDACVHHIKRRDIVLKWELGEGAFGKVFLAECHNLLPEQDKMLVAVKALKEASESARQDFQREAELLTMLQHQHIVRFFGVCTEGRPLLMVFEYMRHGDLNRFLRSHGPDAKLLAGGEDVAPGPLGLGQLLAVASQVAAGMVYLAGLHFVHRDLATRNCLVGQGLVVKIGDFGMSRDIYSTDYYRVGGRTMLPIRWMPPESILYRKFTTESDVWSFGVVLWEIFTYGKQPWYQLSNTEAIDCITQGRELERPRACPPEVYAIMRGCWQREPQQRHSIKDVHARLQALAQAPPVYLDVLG
Aurora kinase A, sequence (O14965 whole entry): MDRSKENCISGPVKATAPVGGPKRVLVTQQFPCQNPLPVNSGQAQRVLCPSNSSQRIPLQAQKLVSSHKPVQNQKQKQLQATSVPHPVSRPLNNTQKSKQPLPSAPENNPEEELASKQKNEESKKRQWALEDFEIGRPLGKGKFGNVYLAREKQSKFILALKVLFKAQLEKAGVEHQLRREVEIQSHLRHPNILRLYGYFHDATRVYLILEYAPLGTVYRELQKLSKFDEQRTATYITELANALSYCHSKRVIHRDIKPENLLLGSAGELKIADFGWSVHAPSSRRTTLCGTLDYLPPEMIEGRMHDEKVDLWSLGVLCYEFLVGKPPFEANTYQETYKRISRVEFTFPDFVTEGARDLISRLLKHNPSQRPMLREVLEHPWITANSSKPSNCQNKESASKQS
Serine/threonine-protein kinase Sgk1, sequence (O00141 whole entry): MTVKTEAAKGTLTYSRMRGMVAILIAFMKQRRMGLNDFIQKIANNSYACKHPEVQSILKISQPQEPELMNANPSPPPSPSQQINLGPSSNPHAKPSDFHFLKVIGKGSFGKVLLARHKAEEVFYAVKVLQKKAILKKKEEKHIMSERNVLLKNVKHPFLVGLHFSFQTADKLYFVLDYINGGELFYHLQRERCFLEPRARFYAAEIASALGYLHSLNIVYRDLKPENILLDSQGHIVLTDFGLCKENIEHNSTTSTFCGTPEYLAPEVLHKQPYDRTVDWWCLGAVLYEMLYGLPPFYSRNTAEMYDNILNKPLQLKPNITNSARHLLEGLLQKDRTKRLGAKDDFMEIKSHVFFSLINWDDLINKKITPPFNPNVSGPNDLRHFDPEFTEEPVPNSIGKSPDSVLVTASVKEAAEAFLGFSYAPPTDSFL
Serine/threonine-protein kinase TAO3, sequence (Q9H2K8 whole entry): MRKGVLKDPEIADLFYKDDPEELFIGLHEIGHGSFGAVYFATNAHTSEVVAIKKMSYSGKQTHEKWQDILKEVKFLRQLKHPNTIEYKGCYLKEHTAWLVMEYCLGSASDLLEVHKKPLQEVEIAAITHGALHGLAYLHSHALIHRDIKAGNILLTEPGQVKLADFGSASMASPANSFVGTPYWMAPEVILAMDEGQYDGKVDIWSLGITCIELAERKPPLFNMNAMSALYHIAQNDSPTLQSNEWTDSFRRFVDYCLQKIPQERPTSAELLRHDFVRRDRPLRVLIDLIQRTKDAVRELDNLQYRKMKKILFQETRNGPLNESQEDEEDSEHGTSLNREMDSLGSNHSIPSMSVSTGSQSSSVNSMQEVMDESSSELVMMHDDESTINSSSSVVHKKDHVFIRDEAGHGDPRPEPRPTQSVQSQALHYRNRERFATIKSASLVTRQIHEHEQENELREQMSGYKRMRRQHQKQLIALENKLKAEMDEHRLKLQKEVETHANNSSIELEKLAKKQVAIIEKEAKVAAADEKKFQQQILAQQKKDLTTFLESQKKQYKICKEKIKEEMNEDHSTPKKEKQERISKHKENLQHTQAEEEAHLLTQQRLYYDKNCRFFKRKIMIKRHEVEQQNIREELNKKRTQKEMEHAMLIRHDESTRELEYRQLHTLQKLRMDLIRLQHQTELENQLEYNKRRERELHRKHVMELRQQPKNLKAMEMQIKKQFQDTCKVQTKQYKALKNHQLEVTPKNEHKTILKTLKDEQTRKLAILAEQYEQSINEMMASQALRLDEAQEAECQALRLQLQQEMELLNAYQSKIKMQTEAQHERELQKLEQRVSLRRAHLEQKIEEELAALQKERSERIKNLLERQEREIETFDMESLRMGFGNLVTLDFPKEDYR
RAC-alpha serine/threonine-protein kinase, sequence (P31749 whole entry): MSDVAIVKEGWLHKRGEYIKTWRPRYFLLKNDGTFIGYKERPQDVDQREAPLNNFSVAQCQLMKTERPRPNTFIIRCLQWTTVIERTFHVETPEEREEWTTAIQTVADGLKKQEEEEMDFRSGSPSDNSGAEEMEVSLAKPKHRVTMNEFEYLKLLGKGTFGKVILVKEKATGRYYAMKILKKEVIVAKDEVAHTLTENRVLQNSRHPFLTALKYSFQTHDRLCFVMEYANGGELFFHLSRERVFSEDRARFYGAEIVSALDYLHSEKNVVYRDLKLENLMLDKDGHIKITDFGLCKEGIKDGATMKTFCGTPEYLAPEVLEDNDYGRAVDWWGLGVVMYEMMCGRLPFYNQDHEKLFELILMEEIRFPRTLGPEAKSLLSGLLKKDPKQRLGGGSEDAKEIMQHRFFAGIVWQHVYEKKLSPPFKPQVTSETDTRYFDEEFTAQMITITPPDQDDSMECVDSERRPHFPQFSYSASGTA

What is called half-life is the time in which the quantity being followed falls by half. The low end stands for fast loss, the high end for slow loss. Turning to `O=C(c1cc2ccc(F)cc2[nH]1)N1C[C@]2(CCN(C3CCNC3)C2)c2ccccc21` (some centres undefined), the half-life in [1] was 240 min. This molecule returned a Vdss in the data set on Rattus norvegicus of 1.6 L/kg.
One may read the IC50 as the concentration needed to halve the response being measured. Higher therefore signals a need for much substance. For the molecule `C[C@@H]1CCC(N2CC[C@]3(CN(C(=O)c4cc5ccc(F)cc5[nH]4)c4ccccc43)C2)CN1` (some centres undefined), the Papp in data set [2] came out at 5.13 ×10⁻⁶ cm/s. Further, the IC50 in data set [3] is over 30 µM; on Aurora kinase A, over 30 µM; in data set [4] it was over 30 µM; in data set [5] it was over 30 µM; in data set [6], over 30 µM; in data set [7], 21.9 µM.
